In paper PMC10002828, “FRET assay for live-cell high-throughput screening of the cardiac SERCA pump yields multiple classes of small-molecule allosteric modulators” (Research Square, 2023):
Counter-ions that a name gives are not always drawn. Like-named read-outs stand apart in the source and are kept apart here.

Experiments:
SERCA [1] = details: cited from earlier work
SERCA [2] = test system: SERCA; design: method as in PMID 32397211; details: assay not named; read-out: EC50 (affinity); cited from earlier work
[3] = target: T1, human two-color SERCA2a (2CS) biosensor (Homo sapiens, UniProt P16615); test: FLT/FRET concentration-response of two-color SERCA2a (2CS) biosensor in live HEK293 cells; type: cell-based
T1 construct: expressed in transfected cells
Method: FRET CRC assay plates (0.78–100 μM compound range) with at least ten different compound concentrations were made by adding the appropriate volume of compound or DMSO into black 384 well plates (Greiner Bio-One) using a Mosquito HV (SPTLabTech, United Kingdom). Subsequent ATPase and Ca^2+-transport CRC assay plates (0–50 μM compound range) with repurchased compounds were made in a similar manner using with the Echo 550 (Beckman Coulter) using either 384 well transparent plates (Greiner Bio-One) or black-walled plates with transparent bottoms (Greiner Bio-One), respectively.
On each day of screening, cells were harvested, washed three times with PBS, and centrifuged at 300g for 5min. Cells were filtered using a 70μm cell strainer and diluted to 1–2 × 10^6 cells/mL. Cell concentration and viability were assessed using the Cell countess (Invitrogen) and trypan blue assay. During assays, cells were constantly and gently stirred using a magnetic stir bar at room temperature, keeping the cells in suspension and evenly distributed to avoid clumping. Cells were dispensed at 5μL or 50μL per well into assay plates (dispensed into 40 assay plates, each containing 1536 wells) pre-plated with either compound or DMSO using a Multdrop Combi liquid dispenser (Thermo Fisher Scientific, Pittsburg, PA) and sealed until needed. […] The FRET HTS screen was performed over two days with a custom HTS fluorescence lifetime plate reader (FLT-PR) and spectral plate reader (SUPR) provided by Photonic Pharma LLC (Minneapolis, MN)[18]. […]
A detailed description of the high-throughput fluorescence lifetime plate reader (FLT-PR) and spectral unmixing plate reader (SUPR), manufactured by Fluorescence Innovations Inc and provided by Photonic Pharma, LLC was described previously[18],[21]. Briefly, for lifetime measurement with the FLT-PR, the observed donor-fluorescence waveform, F (t) was fit by a convolution of the measured instrument response function (IRF) and a single-exponential decay to obtain the lifetime (τ) of the donor fluorophore[57] in the absence (τD) and presence (τDA) of the acceptor as described in Eq. (1): 1 F(t)=Ae^(−t/τ) FRET efficiency (E) was determined as the fractional decrease of donor FLT in the absence and in the presence of acceptor as in Eq. (2): 2 E=1−τDA/τD E was determined in the presence and absence of compound and normalized relative to E of the DMSO control. For spectral detection with the SUPR, the observed fluorescence emission spectrum F(λ) was fit by least-squares minimization of a linear combination of component spectra for donor (D), acceptor (A), cellular autofluorescence (C) and water Raman (W) as described previously. […]

SERCA2a [4] = target: T2, SERCA2a (Sus scrofa, UniProt P11607); test: NADH-linked enzyme-coupled Ca2+-ATPase assay in pig cardiac SR vesicles; type: biochemical; details: for functional category (Ca2+-ATPase and Ca2+-transport, VMAX and VMID): based on both Ca2+-ATPase and Ca2+-transport assays; for Ca2+-ATPase increase at VMID (ΔVMID): midpoint Ca2+; for Ca2+-ATPase increase at VMAX (ΔVMAX): saturating Ca2+
T2 construct: SERCA2a in native SR preparations; from tissue; host or cells: porcine left ventricular tissue (cardiac SR vesicles)
Method: (§1) Cardiac SR vesicles were isolated from fresh porcine left ventricular tissue using differential centrifugation of the homogenized tissue as previously described. The SR vesicles were flash-frozen and stored at −80°C until needed.
Functional assays were performed using porcine cardiac SR vesicles. An enzyme-coupled, NADH-linked ATPase assay was used to measure SERCA ATPase activity in 384-well microplates. Each well contained 50 mM MOPS (pH 7.0), 100 mM KCl, 1 mM EGTA, 0.2 mM NADH, 1 mM phosphoenol pyruvate, 10 IU/mL of pyruvate kinase, 10 IU/mL of lactate dehydrogenase, 7 μM of the calcium ionophore A23187 (Sigma), and CaCl2 was added to set free [Ca^2+] to three different concentrations. The Ca^2+-ATPase were measured at VMAX (saturating, pCa 5.4), VM!D (subsaturating, midpoint, pCa 6.2), and basal (non-activating, pCa 8.0) [Ca^2+]. 10 μg/mL of SR vesicle, calcium, compound (0.048 to 50 μM), and assay mix were incubated for 20 min at room temperature before measurement of functional assays with each of the 18 hit compounds, because a shorter incubation time than the FRET live-cell assays achieved optimal responses. The assay was started upon the addition of MgATP at a final concentration of 5 mM (total volume to 80 μL), and absorbance was read in a SpectraMax Plus microplate spectrophotometer from Molecular Devices (Sunnyvale, CA) at 340nm.
(§2) SERCA2a ATPase (or Ca-transport) activity at pCa 8.0 was subtracted from pCa 5.4 and pCa 6.2 values. The % effect ATPase (or Ca-transport transport) activity was normalized to the DMSO only (or 2CS in the absence of compound), and then were plotted against [Ca], and the curves were fitted using the Hill function, where V is the initial ATPase rate (or fluorescence rate), VMAX is the ATPase (or Ca^2+-transport) at saturating [Ca^2+], and EC50 or pKCa, or VM!D is the apparent Ca^2+ dissociation constant as described previously ATPase (or Ca^2+-transport) at (Midpoint Ca^2+)[44].

SERCA2a [5] = target: T2, SERCA2a; test: Fluo-4 oxalate-supported Ca2+-transport assay in pig cardiac SR vesicles; type: biochemical; details: for coupling ratio (CR), VMAX (Ca2+-transport) / VMAX (Ca2+-ATPase): at VMAX, control 0.66; for Ca2+-transport increase at VMID (Δ): midpoint Ca2+; for Ca2+-transport increase at VMID (Δ) / C10, Ca2+-transport at VMID: pCa 6.2; for Ca2+-transport change at VMAX (Δ, increase positive): saturating Ca2+
Method: as §1
Ca^2+-transport assays were performed with similar porcine SR samples as in the Ca^2+-ATPase assays described above. The compound effect on the Ca^2+-transport activity of SERCA2a was determined using an oxalate-supported assay in which the change in fluorescence in a Ca-sensitive dye, Fluor-4, was determined as previously described. A buffered solution containing 50 mM MOPS (pH 7.0), 100 mM KCl, 30 mg/mL sucrose, 1 mM EGTA, 10 mM potassium oxalate, 2 μM Fluo-4, 30 μg/mL porcine cardiac SR vesicles, CaCl2 calculated to reach the free [Ca^2+] (pCa 8.0, 6.2, and 5.4), and compound (0.048 to 50μM) was dispensed into 384-well black walled, transparent bottomed plates (Greiner Bio-One) containing the tested small molecule and incubated at 22°C for 20 minutes while covered and protected from light. To start the reaction, MgATP was added to a final concentration of 5 mM, and the decrease in 485-nm excited fluorescence of Fluo-4 was monitored at 520 nm for 15 min using a FLIPR Tetra (Molecular Devices, San Jose, CA).
as §2

[6] = design: method as in PMID 21878191; details: human usage; cited from earlier work
[7] = 2CS biosensor, live HEK293 cells, CRC 0.78–100 μM compound, read-out: FRET EC50

T1 sequence (P16615 1-997 isoform P16615-2): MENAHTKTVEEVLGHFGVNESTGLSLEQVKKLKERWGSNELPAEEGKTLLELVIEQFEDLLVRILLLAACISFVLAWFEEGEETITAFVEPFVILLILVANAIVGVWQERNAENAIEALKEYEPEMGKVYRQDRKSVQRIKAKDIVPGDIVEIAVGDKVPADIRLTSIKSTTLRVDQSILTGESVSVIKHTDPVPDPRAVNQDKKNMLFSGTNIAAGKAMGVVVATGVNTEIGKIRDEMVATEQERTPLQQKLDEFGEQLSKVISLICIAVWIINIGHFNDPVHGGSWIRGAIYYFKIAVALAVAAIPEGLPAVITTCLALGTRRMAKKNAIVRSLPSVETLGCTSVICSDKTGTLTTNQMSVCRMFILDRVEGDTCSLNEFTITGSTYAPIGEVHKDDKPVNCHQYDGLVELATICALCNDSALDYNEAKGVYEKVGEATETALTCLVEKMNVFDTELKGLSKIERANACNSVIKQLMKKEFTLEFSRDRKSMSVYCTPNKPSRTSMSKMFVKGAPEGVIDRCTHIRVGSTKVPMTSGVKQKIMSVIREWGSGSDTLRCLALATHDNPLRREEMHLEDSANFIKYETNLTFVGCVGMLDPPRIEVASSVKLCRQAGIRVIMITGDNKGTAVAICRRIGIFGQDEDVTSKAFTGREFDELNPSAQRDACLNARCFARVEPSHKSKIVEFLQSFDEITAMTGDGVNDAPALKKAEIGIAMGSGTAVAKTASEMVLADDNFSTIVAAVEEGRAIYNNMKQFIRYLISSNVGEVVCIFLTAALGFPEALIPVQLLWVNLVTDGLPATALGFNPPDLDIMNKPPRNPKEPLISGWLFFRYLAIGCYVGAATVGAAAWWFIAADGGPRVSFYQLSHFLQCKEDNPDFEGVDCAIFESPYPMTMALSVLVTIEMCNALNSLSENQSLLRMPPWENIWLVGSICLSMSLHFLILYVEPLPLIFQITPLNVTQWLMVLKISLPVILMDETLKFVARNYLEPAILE
T2 sequence (P11607 1-997 isoform P11607-2): as the sequence (P16615 1-997 isoform P16615-2) above, with R371K, N403K, S538P, L570M, H576N, D667E, A713S, S865T, I889V, V963L counted along it

CCCCN(CC)c1nc(C)nc2c1c(C)cn2-c1c(C)cc(C)cc1C [CP-154526]
effect on SERCA (SERCA [1]): increases the apparent Ca^2+ affinity of SERC2a

C/C=C(/C)C(=O)O[C@H]1C(C)=C2[C@H]([C@@H]1OC(=O)CCCCCCC)[C@@](C)(OC(C)=O)C[C@H](OC(=O)CCC)[C@@]1(O)[C@H]2OC(=O)[C@@]1(C)O [thapsigargin]
EC50 (SERCA [2]): ~0.0075 µM

Cc1ccc2cccc(NC(=O)c3ccc(OC(C)C)cc3)c2n1 [CDN1163]
effect on SERCA (SERCA [1]): stimulates Ca^2+ transport

O=C(c1cc(O)c(O)c([N+](=O)[O-])c1)c1ccccc1F [Ro 41–0960]
effect on SERCA (SERCA [1]): increases SERCA maximal activity in high Ca^2+

OCC1(Cc2ccccc2F)CCCN(Cc2cc3c(cc2Cl)OCO3)C1 (stereo not drawn) [Compound 12]
EC50 ([3]; assay not given, probably FRET EC50 of Table 1, read-out: EC50 (affinity), compared with thapsigargin): 3.8 µM | Ca2+-ATPase inhibition at VMAX (SERCA2a [4]; pCa 5.4): 93% | Ca2+-ATPase inhibition at VMID (SERCA2a [4]; pCa 6.2): 90% | Ca2+-transport inhibition (SERCA2a [5]): completely inhibited

C[C@]12CCC(=NOCCN)C[C@@H]1C(=O)C[C@@H]1[C@@H]2CC[C@]2(C)C(=O)CC[C@@H]12 [istaroxime, (E,Z)-3-((2-aminoethoxy)imino) androstane-6,17-dione hydrochloride)]
effect on SERCA (SERCA [1]): stimulates SERCA activity | clearance rate [6]: high clearance rate | gastrointestinal absorption [6]: poor gastrointestinal absorption | metabolic transformation [6]: extensive metabolic transformation

COc1ccc(C(=O)C2CCCN(Cc3nc(-c4ccc(F)cc4)cs3)C2)c(OC)c1 (stereo not drawn) [Compound 8]
EC50 [3, 7]: 4.9 µM | functional category (Ca2+-ATPase and Ca2+-transport, VMAX and VMID) (SERCA2a [4]): activates both Ca^2+-ATPase and Ca^2+-transport | Ca2+-ATPase increase at VMID (ΔVMID) (SERCA2a [4]; pCa 6.2): 31% | C10, Ca2+-ATPase at VMAX (SERCA2a [4]; pCa 5.4): 4.3 µM | C10, Ca2+-ATPase at VMID (SERCA2a [4]; pCa 6.2): 7.8 µM | Ca2+-ATPase increase at VMAX (ΔVMAX) (SERCA2a [4]; pCa 5.4): 49% | coupling ratio (CR), VMAX (Ca2+-transport) / VMAX (Ca2+-ATPase) (SERCA2a [5]): 0.4 | Ca2+-transport increase at VMID (Δ) (SERCA2a [5]): 7% | C10, Ca2+-transport at VMAX (SERCA2a [5]; pCa 5.4): 25 µM | Ca2+-transport change at VMAX (Δ, increase positive) (SERCA2a [5]; pCa 5.4): 10%

CCn1nc(C)c(CN2CCCC(Nc3ccc(C(C)C)cc3)C2)c1C (stereo not drawn) [Compound 7]
EC50 [3, 7]: 0.3 µM | functional category (Ca2+-ATPase and Ca2+-transport, VMAX and VMID) (SERCA2a [4]): activates both Ca^2+-ATPase and Ca^2+-transport | Ca2+-ATPase increase at VMID (ΔVMID) (SERCA2a [4]; pCa 6.2): 7% | C10 (compound concentration that changes function by 10%), Ca2+-ATPase at VMAX (SERCA2a [4]; pCa 5.4): 25 µM | C10, Ca2+-ATPase at VMID (SERCA2a [4]; pCa 6.2): 25 µM | Ca2+-ATPase increase at VMAX (ΔVMAX) (SERCA2a [4]; pCa 5.4): 14% | coupling ratio (CR), VMAX (Ca2+-transport) / VMAX (Ca2+-ATPase) (SERCA2a [5]): 0.74 | Ca2+-transport increase at VMID (Δ) (SERCA2a [5]): 19% | C10, Ca2+-transport at VMAX (SERCA2a [5]; pCa 5.4): 14 µM | C10, Ca2+-transport at VMID (SERCA2a [5]): 21 µM | Ca2+-transport change at VMAX (Δ, increase positive) (SERCA2a [5]; pCa 5.4): 24%

O=C(c1ccc(-c2ccc(O)cc2)nc1)N1CCC(CCc2ccccc2)CC1 [Compound 6]
EC50 ([3]; 2CS biosensor, normalized FRET E, read-out: FRET half maximal effect (EC50), Figure 6 legend): 7.1 ± 0.2 µM | functional category (Ca2+-ATPase and Ca2+-transport, VMAX and VMID) (SERCA2a [4]): activates Ca^2+-ATPase with divergent effects on Ca^2+-transport | Ca2+-ATPase increase at VMID (ΔVMID) (SERCA2a [4]; pCa 6.2): 30% | C10 (compound concentration that changes function by 10%), Ca2+-ATPase at VMAX (SERCA2a [4]; pCa 5.4): 9.7 µM | EC50 (SERCA2a [4]; pCa 5.4, read-out: EC50, Ca2+-ATPase at VMAX): 11 µM | C10, Ca2+-ATPase at VMID (SERCA2a [4]; pCa 6.2): 8.7 µM | EC50 (SERCA2a [4]; pCa 6.2, read-out: EC50, Ca2+-ATPase at VMID): 11 µM | coupling ratio (CR), VMAX (Ca2+-transport) / VMAX (Ca2+-ATPase) (SERCA2a [5]): 0.48 | Ca2+-transport increase at VMID (Δ) (SERCA2a [5]): 17% | C10, Ca2+-transport at VMAX (SERCA2a [5]; pCa 5.4): 15 µM | Ca2+-transport inhibition at VMAX (SERCA2a [5]; pCa 5.4): 21% | C10, Ca2+-transport at VMID (SERCA2a [5]): 4 µM
